pIC50: −log10 of the molar value.
How the values were obtained:
[1] = molecular target: IDH1-R132H recombinant protein (Homo sapiens, UniProt O75874, R132H); experiment: IDH1-R132H enzymatic assay (NADPH consumption, diaphorase/resazurin readout); type: biochemical; settings: read-out: Enzyme IDH1 R132H IC50 Range
In short: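 Compound was preincubated 15 min at 25 °C with recombinant IDH1-R132H (30 nM) or IDH1-R132C (10 nM) enzyme solution in 50 mM Tris pH 7.5, 150 mM NaCl, 5 mM MgCl2, 0.1% BSA and 0.01% Triton X-100. A solution of 2 mM α-ketoglutarate and 20 μM NADPH was then added for 45 min at 25 °C. Remaining NADPH was read by diaphorase/resazurin, and IC50 came from a four-parameter logistic fit of NADPH-consumption inhibition.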

[2] = molecular target: IDH1-R132C recombinant protein (Homo sapiens, UniProt O75874, R132C); experiment: IDH1-R132C enzymatic assay (NADPH consumption, diaphorase/resazurin readout); type: biochemical; settings: read-out: Enzyme IDH1 R132C IC50 Range
Sequence of IDH1-R132C recombinant protein (O75874 whole entry R132C): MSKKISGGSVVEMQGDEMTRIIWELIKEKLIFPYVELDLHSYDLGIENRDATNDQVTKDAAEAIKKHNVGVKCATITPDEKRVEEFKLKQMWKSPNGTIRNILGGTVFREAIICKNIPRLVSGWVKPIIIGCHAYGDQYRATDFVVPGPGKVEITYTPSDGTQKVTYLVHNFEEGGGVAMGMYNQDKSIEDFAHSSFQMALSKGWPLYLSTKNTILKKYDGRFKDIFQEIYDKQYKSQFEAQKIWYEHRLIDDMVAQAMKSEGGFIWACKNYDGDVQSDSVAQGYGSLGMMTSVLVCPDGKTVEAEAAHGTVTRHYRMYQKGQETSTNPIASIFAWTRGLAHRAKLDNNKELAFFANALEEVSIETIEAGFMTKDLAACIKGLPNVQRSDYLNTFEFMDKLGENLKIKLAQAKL
Method: Assays were performed in a 384-well black plate. An aliquot of 250 nL of compound was incubated with 10 μL of 30 nM IDH1-R132H or 10 nM IDH1-R132C recombinant protein in assay buffer (50 mM Tris pH=7.5, 150 mM NaCl, 5 mM MgCl2, 0.1% (w/v) Bovine Serum Albumin, and 0.01% Triton X-100) in each well at 25° C. for 15 minutes. After the plate was centrifuged briefly, an aliquot of 10 μL of 2 mM α-ketoglutarate and 20 μM NADPH solution prepared in assay buffer was then added to each well and the reaction was maintained at 25° C. for 45 minutes. An aliquot of 10 μL of diaphorase solution (0.15 U/mL diaphorase and 30 μM Resazurin in assay buffer) was added to each well. […] The IC50 of a given compound was calculated by fitting the dose response curve of inhibition of NADPH consumption at a given concentration with the four parameter logistic equation.

[3] = tested on: HCT116 isogenic IDH1-R132H mutant cells; experiment: Cellular 2-HG assay using HCT116 mutant IDH1 cells (R132H); type: cell-based; settings: Homo sapiens, HCT-116; cellular 2-HG inhibition, 24 hours, RapidFire mass spectrometry; read-out: HCT116 IDH1 R132H IC50 Range
[4] = tested on: HCT116 isogenic IDH1-R132C mutant cells; experiment: Cellular 2-HG assay using HCT116 mutant IDH1 cells (R132C); type: cell-based; settings: Homo sapiens, HCT-116; cellular 2-HG inhibition, 24 hours, RapidFire mass spectrometry; read-out: HCT116 IDH1 R132C IC50 Range

Sequence of IDH1-R132H recombinant protein (O75874 whole entry R132H): as the sequence (O75874 whole entry R132C) above, with C132H counted along it

Row | SMILES | pIC50 [1] | pIC50 [2] | pIC50 [3] | pIC50 [4]
1 | COc1cc(NCc2cc3cc(Cl)ccc3[nH]c2=O)ccc1C#N [Compound I-7, 4-{[(6-chloro-2-oxo-1,2-dihydroquinolin-3-yl)methyl]amino}-2-methoxybenzonitrile] | 6.00 to 7.00 | < 6.00 | 6.00 to 7.00 | < 6.00
2 | COc1cc(NCc2cc3cc(Cl)c(OCC4CCS(=O)(=O)CC4)cc3[nH]c2=O)ccc1C#N [Compound I-75, 4-[({6-chloro-7-[(1,1-dioxo-1λ^6-thian-4-yl)methoxy]-2-oxo-1,2-dihydroquinolin-3-yl}methyl)amino]-2-methoxybenzonitrile] | 6.00 to 7.00 | < 6.00 |  | 
3 | COc1cc(N[C@@H](C)c2cc3cc(Cl)ccc3[nH]c2=O)ccc1C#N [Compound I-2, 4-{[(1S)-1-(6-chloro-2-oxo-1,2-dihydroquinolin-3-yl)ethyl]amino}-2-methoxybenzonitrile] | 7.00 to 8.00 | 6.00 to 7.00 | > 8.00 | 6.00 to 7.00
4 | COc1cc(NCc2cc3cc(Cl)c(OCCN4CCCC4)cc3[nH]c2=O)ccc1C#N [Compound I-85, 4-[({6-chloro-2-oxo-7-[2-(pyrrolidin-1-yl)ethoxy]-1,2-dihydroquinolin-3-yl}methyl)amino]-2-methoxybenzonitrile] | 6.00 to 7.00 | < 6.00 |  | 

The next lines start with results.

Row | pIC50 [1] | pIC50 [2] | SMILES | pIC50 [3] | pIC50 [4]
5 | 6.00 to 7.00 | < 6.00 | COc1cc(NCc2cc3cc(Cl)c(OCCn4nc(C)cc4C)cc3[nH]c2=O)ccc1C#N [Compound I-92, 4-[({6-chloro-7-[2-(3,5-dimethyl-1H-pyrazol-1-yl)ethoxy]-2-oxo-1,2-dihydroquinolin-3-yl}methyl)amino]-2-methoxybenzonitrile] |  | 
6 | 7.00 to 8.00 | 6.00 to 7.00 | COc1cc(NCc2cc3cc(Cl)c(OCc4cncn4C)cc3[nH]c2=O)ccc1C#N [Compound I-77, 4-[({6-chloro-7-[(1-methyl-1H-imidazol-5-yl)methoxy]-2-oxo-1,2-dihydroquinolin-3-yl}methyl)amino]-2-methoxybenzonitrile] |  | 

Source: patent US10266495B2, “Phenyl quinolinone derivatives as mutant-isocitrate dehydrogenase inhibitors” (FORMA TM2, Inc., priority 2014, dated 2019)
